From US8946229B2, “Formulations” (UCB, Inc., priority 2002, dated 2015)

Experiment: Reactivity of polyols with active compounds of formula I
Assay type: physicochemical

OC[C@H]1O[C@@H](O[C@H]2[C@H](O)[C@@H](O)C(O)O[C@@H]2CO)[C@H](O)[C@@H](O)[C@H]1O (stereo partly shown) [Lactose]
Reactivity with the active compounds of formula I (undesired reaction products): practically no reactivity
